These are literature values, as cited in publication PMC5156321 (Natural product communications, 2014).

For orientation: GI50 means the concentration at which growth is held to half of that of the control.

Like-named read-outs stand apart in the source and are kept apart here.

Data set [1] relates to HeLaS3. Particulars: read-out: IC50 (μM) Nuclei Count Proliferation HeLaS3; tested at MSKCC.
For data set [2], the system named is UMUC3. The note with it: read-out: IC50 (μM) Nuclei Count Proliferation UMUC3; tested at MSKCC.
The target in a further data set is caspase-1. The note with it: for IC50: read-out: Caspase-1 IC50; for caspase-1 % inhibition: test concentration 100 μg,mL; for Caspase-1 IC100: tested at 100 μg/mL and 10 μg/mL.
Data set [3] deals with matrix metalloproteinase-3 (MMP-3). The note with it: for IC50: read-out: MMP-3 IC50.
For data set [4], the system named is IL-1β production in induced THP-1 cells. Particulars: for IC50: read-out: IL-1β production (IC50), LPS and multi-walled carbon nanotubes-induced THP-1 cells; for inhibition of cytokine production in induced inflammasome assay: at the nm level, Figure 11.
Data set [5] has as its system non-small cell lung cancer NCI-H460. The note with it: NCI-DTP 60.
In data set [6] the test system is HeLaS3. The note with it: read-out: IC50 (μM) Alamar Blue Viability HeLaS3; tested at MSKCC. On the technique in general: The colour change of resazurin is a common sign of viable cells or microbes.
For data set [7], the system named is UMUC3. The note with it: read-out: IC50 (μM) Alamar Blue Viability UMUC3; tested at MSKCC.
The subject of a further data set is H3255. Particulars: read-out: IC50 (μM) Nuclei Count Proliferation H3255; tested at MSKCC.
The next data set relates to Y79. The note with it: read-out: IC50 (μM) Nuclei Count Proliferation Y79; tested at MSKCC.
Data set [8] has as its system non-small cell lung cancer NCI-H522. Particulars: NCI-DTP 60.
Another data set concerns all leukemia cell lines. Particulars: NCI-DTP 60.
The subject of another data set is leukemia SR. The note with it: NCI-DTP 60.
Another data set deals with leukemia HL-60. The note with it: NCI-DTP 60.
The subject of the next data set is leukemia CCRFCEM. Particulars: NCI-DTP 60.
The subject of another data set is leukemia RPMI-8226. Particulars: NCI-DTP 60.
Where [9] appears, read: test concentrations 100 μg/mL and 10 μg/mL.

`C/C=C(\C)C(=O)O[C@H]1C=CC(=O)O[C@H]1CCC(=O)[C@H](C)O` [compound 36, Phomopsolide E]: the IC50 was 7.3 µM in the data set on HeLaS3 [1] and 6.6 µM in the data set on UMUC3 [2].

Consider “Berkebisabolane A [Berkebisabolane A (4)]”, for which the IC50 is 23 µM on caspase-1 and 0.28 µM in [3].

Consider `C=C(C)C1=CC[C@@]2(C)[C@@H](C[C@]3(C)C(=C)[C@@]2(C(=O)OC)C(=O)[C@@](C)(O)C3=O)[C@]1(C)CCC(=O)O` [Berkeleyone C (14), Berkeleyone C], for which the caspase-1 % inhibition in the data set on caspase-1 is 0%. Also, the IC50 in data set [4] was 37.8 µM.

In the case of `COC(=O)[C@]12C(=O)[C@H](C)O[C@@H]3OC(=O)[C@](C)(C[C@H]4[C@]5(CO5)C5=CC(=O)OC(C)(C)C5=CC[C@@]41C)[C@@H]32` [B (18), berkeleyacetal B], the “caspase-1 inhibition, concentration range” value in the data set with caspase-1 is given as “mM range”. Moreover, in [3], the “MMP-3 inhibition, concentration range” value is recorded as “mM range”.

In the case of `C/C=C/C1=CC2=CC(=O)[C@@H](C)[C@H](O)[C@H]2CO1` [Berkazaphilone A (25), Berkazaphilone A], the “Caspase-1 IC100” value with caspase-1 is “Caspase-1: 100 μg/mL”.

In the case of `CC(=O)N[C@H](C(=O)O[C@H]1CCC(C)(C)[C@@H]2CC=C3C(=O)OC[C@]3(O)[C@@]12C)C(C)C` [B (32), Berkedrimane B], the “caspase-1 IC50” value at caspase-1 is 50 µg/mL. For the same compound, in data set [4], the “inhibition of cytokine production in induced inflammasome assay” value (from here on “inhibition of cytokine production”) is reported as “completely inhibited”.

As to `C=C1[C@@]2(C)C[C@H]3C(C)=C4CC(=O)OC(C)(C)C4=CC[C@]3(C)[C@]1(C(=O)OC)C(=O)[C@@](C)(O)C2=O` [Berkeleydione (8), berkeleydione], in the data set on caspase-1, the caspase-1 % inhibition is recorded as 89%. Further, in [5], the “NCI-H460 log10 GI50” value is on record as “NCI-H460: log10 GI50 −6.40” and the “activity towards NCI-H460” value is on record as “selective activity”. The IC50 in [3] is 22 µM. Also, the IC50 in [4] was 4.4 µM.

Consider `COC(=O)[C@]12C(=O)[C@H](C)O[C@@H]3OC(=O)[C@](C)(C[C@H]4C(C)=C5CC(=O)OC(C)(C)C5=CC[C@@]41C)[C@@H]32` [berkeleyacetals A (17), berkeleyacetal A], for which the “caspase-1 inhibition, concentration range” value with caspase-1 was “mM range”. Further, the “MMP-3 inhibition, concentration range” value in data set [3] is on record as “mM range”.

As to “Berkebisabolane B [Berkebisabolane B (5)]”, the IC50 was 23 µM at caspase-1 and 0.315 µM in data set [3].

As for `CCCCC[C@@H]1Cc2cc(O)c(C(=O)O)c3c2[C@H](C[C@]2(OC[C@H](CC(=O)C(C)(CC)C(=O)OC)[C@H]2C)O3)O1` (stereo partly drawn) [Berkelic acid (1), berkelic acid], the IC50 was 98 µM on caspase-1 and 1.87 µM in [3]. The “activity in the NCI-DTP60 against OVCAR-3” value in the data set with OVCAR-3 was “active”. In the data set on OVCAR-3 (read-out: GI50 NCI-DTP: OVCAR-3, NCI-DTP 60), the GI50 was 0.091 µM.

With `C/C=C(\C)C(=O)O[C@H]1C=CC(=O)O[C@H]1/C=C\C(=O)C(C)O` (stereo partly drawn) [compound 33, Phomopsolide A], the IC50 in the data set with HeLaS3 [1] is 5 µM; with UMUC3 [2] it was 4.8 µM; in the data set with HeLaS3 [6], 6.3 µM; in [3], 100 µM; in the data set with UMUC3 [7], 6.5 µM.

Berkedrimane A [Berkedrimane A (31)]: the “caspase-1 IC50” value at caspase-1 is 60 µg/mL. The “inhibition of cytokine production” value in [4] was “completely inhibited”.

Consider `C=C1[C@@]2(C)C[C@@H]3[C@](C)(CC=C4C(C)(C)OC(=O)CC[C@]43C)[C@]1(C(=O)OC)C(=O)[C@@](C)(O)C2=O` [Berkeleyone B (13), Berkeleyone B], for which the caspase-1 % inhibition in the data set on caspase-1 is reported as 100%. Moreover, in data set [4], the IC50 is 3.7 µM.

For `C/C=C(\C)C(=O)O[C@H]1C=CC(=O)O[C@H]1/C=C/C(=O)[C@H](C)O` [compound 35, Phomopsolide C], the IC50 was 2.7 µM in the data set on HeLaS3 [1]; 1.4 µM in the data set on UMUC3 [2]; 2.6 µM with H3255; 3.6 µM with HeLaS3 [6]; 2.2 µM with UMUC3 [7]; 1.4 µM in the data set on Y79.

For `C=C1[C@@]2(C)C[C@H]3[C@]4(C)CC[C@@H](O)C(C)(C)[C@H]4CC[C@]3(C)[C@]1(C(=O)OC)C(=O)[C@@](C)(O)C2=O` [Berkeleyone A (12), Berkeleyone A], the caspase-1 % inhibition with caspase-1 is 68%. Further, the IC50 in [4] is 2.7 µM.

For the compound `C=C1[C@@]2(C)C[C@H]3[C@]4(C)CCC(=O)C(C)(C)[C@H]4CC[C@]3(C)[C@]1(C(=O)OC)C(=O)[C@@](C)(O)C2=O` [Preaustinoid A (10), preaustinoid A], in the data set on caspase-1, the “caspase-1 inhibition” value is “inhibited caspase-1 activity” and the caspase-1 % inhibition is 97%. Moreover, the IC50 in data set [4] is 15.5 µM.

With `C=C1[C@@]2(C)C[C@H]3[C@@]4(C)C(=CC[C@]3(C)[C@]1(C(=O)OC)C(=O)[C@@](C)(O)C2=O)C(C)(C)C(=O)C[C@H]4O` [Berkeleytrione (9), berkeleytrione], the IC50 in data set [3] was 180 µM.

For `CC(C)C[C@H]1C[C@H]([C@@H](O)CC(=O)Cc2ccccc2)C(=O)N1` [Berkeleyamide A (21), Berkeleyamide A], the “NCI-H522 log10 GI100” value in [8] was “log10 GI100: 10 μM;”.

Consider phompyrone [compound 38], for which, in data set [3], the IC50 was over 100 µM.

`C[C@@H]1O[C@@H]2OC(=O)[C@]3(C)C[C@@H]4[C@](C)(C(=O)C=C5C(=CC(=O)OC5(C)C)[C@@]45CO5)[C@H](C1=O)[C@H]23` [berkeleyacetal C (19), berkeleyacetal C]: the “caspase-1 inhibition, concentration range” value in the data set on caspase-1 was “micromolar range”. Moreover, the “growth inhibition of NCI H460” value in [5] was “inhibited the growth”. Besides, the “MMP-3 inhibition, concentration range” value in data set [3] is recorded as “micromolar range”. Besides, in the data set on all leukemia cell lines, the “growth inhibition of all leukemia cell lines” value is given as “inhibited the growth”.

For `C/C=C(\C)C(=O)O[C@H]1C=CC(=O)O[C@H]1/C=C/[C@H](O)[C@H](C)O` [compound 34, Phomopsolide B], the IC50 in the data set with UMUC3 [2] is 6.1 µM.

Turning to `C/C=C/c1cc(=O)c([C@@H]2OC(=O)c3cc(OC)cc(OC)c32)co1` [Vermistatin (28), vermistatin], in the data set on caspase-1 (setting [9]), the “caspase-1 inhibition” value is “not inhibitory”.

For the compound `C=C1[C@@]2(C)C[C@H]3[C@]4(C)CCC(=O)OC(C)(C)[C@@H]4CC[C@]3(C)[C@]1(C(=O)OC)C(=O)[C@@](C)(O)C2=O` [Preaustinoid A1(11), Preaustinoid A1], in the data set with caspase-1, the caspase-1 % inhibition is 77%. Moreover, in [4], the IC50 is 34.3 µM.

For `C/C=C/C1=CC2=CC(=O)[C@](C)(O)[C@H](OC(=O)c3c(C)cc(O)cc3O)[C@H]2CO1` [Berkazaphilone C (27), berkazaphilone C], the “Caspase-1 IC100” value with caspase-1 was “Caspase-1: 10 μg/mL”. For the same compound, the “leukemia SR log10 GI50” value with leukemia SR is given as “leukemia SR: log10 GI50 (−6.42)”. For the same compound, in [4], the “concentration completely inhibitory to IL-1β production in THP-1 cells” value was 20 µg/mL and the “inhibition of cytokine production” value is “completely inhibited”.

In the case of “Berkebisabolane C [Berkebisabolane C (6)]”, the IC50 at caspase-1 is 23 µM; in data set [3], 0.34 µM.

Regarding `COc1cc(OC)c2c(c1)C(=O)O[C@H]2c1coc(C)cc1=O` [Penisimplicissimum (30), penisimplicissin], in the data set on leukemia HL-60, the “leukemia HL-60 log10 GI50” value is recorded as “leukemia HL-60: log10 GI50 (−5.83)”. In the data set on caspase-1, the “Caspase-1 IC100” value is “Caspase-1: 100 μg/mL”. For the same compound, the “leukemia CCRFCEM log10 GI50” value with leukemia CCRFCEM is “leukemia CCRFCEM: log10 GI50 (−6.70)”.

Consider `CCCCCCCCCC(=O)[C@@]12O[C@@]13C1=COC(C[C@H](C)O)=CC1=CC(=O)[C@]3(C)OC2=O` [compound 45, berkchaetoazaphilone B], for which, in the data set with caspase-1, the “caspase-1 inhibition” value is reported as “strongest caspase-1 inhibitor”.

`C/C=C/C1=CC2=CC(=O)[C@](C)(OC(=O)c3c(C)cc(O)cc3O)[C@H](O)[C@H]2CO1` [Berkazaphilone B (26), berkazaphilone B]: in the data set on caspase-1, the “Caspase-1 IC100” value is recorded as “Caspase-1: 10 μg/mL”. Also, the “leukemia RPMI-8226 log10 GI50” value with leukemia RPMI-8226 is recorded as “leukemia RPMI-8226: log10 GI50 (−5.67)”. For the same compound, in [4], the “concentration completely inhibitory to IL-1β production in THP-1 cells” value was 2.0 µg/mL.

For `CCCc1cc(=O)c([C@@H]2OC(=O)c3cc(OC)cc(OC)c32)co1` [dihydrovermistatin (29), dihydrovermistatin], the “caspase-1 inhibition” value in the data set with caspase-1 (setting [9]) was “not inhibitory”.
